In patent US20240424005A1, “DIAGNOSING, MONITORING AND TREATING NEUROLOGICAL DISEASE WITH PS[…] DERIVATIVES AND mRNA MEASUREMENTS” (NOVA MENTIS LIFE SCIENCE CORP., priority 2021, published 2024):
Entries after “also recorded” stand apart in the source; their conditions may differ.

What was measured:
[1] = test system: red blood cells; assay: Toxicity and oxidative stress in red blood cells
[2] = test system: wild-type (WT) animals; assay: Novel object recognition task in wild-type control rats; type: in vivo, rat
Method: The experiments were performed in Fmr1-^Δexon 8 rats on a Sprague-Dawley background (Horizon Discovery, formerly SAGE Labs, USA), proposed as a genetic model of ASD and rat model of FXS (Golden et al., 2019; Schiavi et al., 2022); the corresponding wild-type (WT) animals were used as controls.
(§1) We performed three experiments testing Fmr1-^Δexon 8 rats and WT controls in the novel object recognition task using three different treatment schedules for psilocybin administration: • 1. Experiment 1: a single dose of either 1 (Hibicke et al., 2020) or 3 mg/kg psilocybin given intraperitoneally (i.p.) eight days before behavioral testing (FIG. 8A); • 2. Experiment 2: repeated microdoses of psilocybin (0.1 mg/kg) given i.p. three times every other day, with behavioral testing starting five days after the last administration (FIG. 8B); • 3. Experiment 3: repeated microdoses of psilocybin (0.1 or 0.3 mg/kg) (Higgins et al., 2021) given orally (p.o.) three times every other day, for two consecutive weeks, with behavioral testing starting five days after the last administration (FIG. 8C).
We have recently shown that Fmr1-^Δexon 8 rats show impaired novel object recognition memory at adolescence (Schiavi et al., 2022). […] On the training trial, each rat was individually placed into an open-field arena containing two identical objects (A1 and A2), equidistant from each other, and allowed to explore the objects for 5 min. Thirty minutes later, one copy of the familiar object (A3) and a new object (B) were placed in the same location as during the training trial. Each rat was placed in the apparatus for 5 minutes, and the time spent exploring each object was recorded. The discrimination index was calculated as the difference in time exploring the novel and the familiar objects, expressed as the percentage ratio of the total time spent exploring both objects (Schiavi et al., 2022).
Data are expressed as mean±SEM and were analyzed by two-way ANOVA, with genotype (WT or Fmr1-^Δexon 8) and treatment (psilocybin or vehicle) as factors. Tukey's post hoc test was used for individual group comparisons. The accepted value for significance was set at p<0.05. Data were analyzed using GraphPad Prism 8 software.

[3] = test system: VPA-exposed rats; assay: Elevated plus-maze test in rats prenatally exposed to valproic acid; type: in vivo, rat; conditions: offspring of VPA-treated pregnant rats
Method: Female Wistar rats (Charles River), weighing 250±15 g, were mated overnight. The morning when spermatozoa were found was designated as gestational day 1 (GD1). Pregnant rats were singly housed in Macrolon cages (401×26w x 20h cm), under controlled conditions (temperature 20-21° C., 55-65% relative humidity and 12/12h light cycle with lights on at 07:00 a.m.). Food and water were available ad libitum. On gestational day 12.5, females received a single intraperitoneal injection of either sodium valproate (VPA) or saline (SAL). […] Newborn litters found up to 5.00 p.m. were considered to be born on that day (Postnatal day (PND) 0). On PND 1, the litters were culled to eight animals (six males and two females). On PND 21, the pups were weaned and housed in groups of three. […]
The apparatus comprised two open and two closed arms (501×10×40 h cm) that extended from a common central platform (101×10 w cm). […] Each session was recorded with a camera positioned above the apparatus for subsequent behavioral analysis performed using the Observer 3.0 software (Noldus Information Technology). The following parameters were analyzed: […]
Data are expressed as mean±SEM. To assess the effects of prenatal VPA exposure and psilocybin on behavioral parameters, data were analyzed by two-way ANOVA, with prenatal treatment and postnatal treatment as factors. […]

[4] = Observation of discomfort/intoxication after repeated oral microdosing; type: in vivo, rat; conditions: Experiment 3: 0.1 or 0.3 mg/kg p.o. repeated; immediately and days after administration
Method: as §1
To increase the translational value of our findings, we finally decided to assess the effects of repeated oral administration of 0.1 and 0.3 mg/kg psilocybin microdoses, for two weeks every other day, in our Fmr1-^Δexon 8 rats. The animals were tested five days after the last treatment, to prevent any hallucinogenic effect of the drug at the time of behavioral performance.

[5] = 0.1 mg/kg, rats; Higgins et al., 2021; cited from earlier work

SMILES | toxicity in red blood cells [1] | cognitive performance of WT animals (% discrimination index) ([2]; Experiment 1: single dose 1 mg/kg i.p. eight days before testing, WT rats) | cognitive performance of WT animals (% discrimination index) ([2]; Experiment 1: single dose 3 mg/kg i.p. eight days before testing, WT rats vs WT vehicle, p<0.001, 3 mg/kg) | cognitive performance of WT animals ([2]; Experiment 2: 0.1 mg/kg i.p. three times every other day, WT rats) | cognitive performance of WT animals ([2]; Experiment 3: 0.1 or 0.3 mg/kg p.o. repeated for two weeks, WT rats) | performance in wild-type (WT) control animals ([2]; repeated microdoses (schedule not given at the place)) | safety of treatment in the VPA model [3] | signs of discomfort/intoxication in the animals [4] | side effects on motor activity or stereotypies [5]
CN(C)CCc1c[nH]c2cccc(O)c12 [psilocin] | non-toxic | – | – | – | – | – | – | – | –
CN(C)CCc1c[nH]c2cccc(OP(=O)(O)O)c12 [psilocybin] | non-toxic | did not affect the performance of WT animals | poorer cognitive performance; also recorded: detrimental effect | without affecting the performance of WT animals | without affecting the performance of WT animals | without affecting the performance | safe | did not induce any sign of discomfort/intoxication | devoid of side effects on motor activity or stereotypies
